Reference: patent US20250262214A1, “INTERMITTENT DOSING REGIMEN FOR AZENOSERTIB IN TREATING CANCER” (Zeno Management, Inc., priority 2022, published 2025)
Entries after “also recorded” stand apart in the source; their conditions may differ. Where two headings read alike, the source gives them in different places.

Columns and labels:
[1] = test system: non-small cell lung carcinoma (NSCLC) A427; experiment: Non-small cell lung carcinoma (NSCLC) A427 model, tumor volume and body weight; assay type: in vivo, human
Description: In an exemplary non-small cell lung carcinoma (NSCLC) A427 model, Azenosertib was administered at a higher intermittent dose than a corresponding lower continuous dose. For example, Azenosertib was administered at 56 mg/kg in 4 dosing cycles of 5 days on/2 days off (5/2) and compared with a lower continuous dose of 40 mg/kg. Similarly, 112 mg/kg of Azenosertib in 4 dosing cycles of 5 days on/2 days off was compared with a lower continuous dose of 80 mg/kg.
The tumor volume was measured (FIG. 1C) as well as body weight (FIG. 1D) for 28 days post initiation of treatment.
In an exemplary non-small cell lung carcinoma (NSCLC) A427 model, Azenosertib was administered at a higher intermittent dose than a corresponding lower continuous dose. For example, Azenosertib was administered at 100 mg/kg in 4 dosing cycles of 4 days on/3 days off (4/3) and compared with a lower continuous dose of 60 mg/kg.
Change in tumor volume over 25 days post tumor initiation is shown in FIG. 1E, while corresponding change in body weight during treatment is shown in FIG. 1F.

[2] = Clinical exposure (plasma PK) with continuous and intermittent 5/2 dosing; assay type: in vivo, human; settings: for Cmax / Tmax / AUC: human, plasma, oral; for AUC: read-out: AUC24
Description: This example illustrates the clinical exposure achieved with a continuous and an intermittent 5 days on/2 days off (5/2) dosing regimen. A comparison is also made between a once daily dosing regimen and a twice daily dosing regimen. In some embodiments, Azenosertib was administered with food and/or antiemetic agents.
The results are shown as follows: FIG. 5A is a graph of Azenosertib plasma concentration from subjects receiving a 5/2 350 mg once daily or 175 mg twice daily on day 1, cycle 1. FIG. 5B is a graph of Azenosertib plasma concentration from subjects receiving a 5/2 350 mg once daily or 175 mg twice daily on day 11/12, cycle 1. FIG. 5C is a graph of Azenosertib plasma concentration from subjects receiving a continuous dosing regimen relative to subjects receiving a 5/2 intermittent 350 mg once daily dosing regimen on day 1, cycle 1. FIG. 5D is a graph of Azenosertib plasma concentration from subjects receiving a continuous dosing regimen relative to subjects receiving a 5/2 intermittent 350 mg once daily dosing regimen on day 11/12 or 15 of cycle 1. FIG. 5E is a graph of Azenosertib plasma concentration from subjects receiving a continuous dosing regimen relative to subjects receiving a 5/2 intermittent 175 mg twice daily dosing regimen on day 1, cycle 1. FIG. 5F is a graph of Azenosertib plasma concentration from subjects receiving a continuous dosing regimen relative to subjects receiving a 5/2 intermittent 175 mg twice daily dosing regimen on day 11/12 or 15 of cycle 1.

[3] = test system: MDA-MB-468 triple negative breast cancer tumor model; experiment: MDA-MB-468 triple negative breast cancer tumor model, tumor growth inhibition; assay type: in vivo; settings: Azenosertib alone, 60 mg/kg
Description: In vivo exploration of dose and schedule of Azenosertib and PARPi (niraparib, talazoparib) including exploration of alternating dosing was evaluated.

[4] = Phase 1 Azenosertib monotherapy study, PK, safety and RP2D; assay type: in vivo, human
Description: In this example, a Phase 1a dose escalation and Phase 1b dose expansion clinical study was carried out to evaluate the safety and pharmacokinetics (PK), i.e. steady state exposure (AUC0-24) and concentration maximum (Cmax) of Azenosertib monotherapy.
In some cohorts, a phase 1a dose escalation was carried out starting at doses below 200 mg, escalating to 200 mg, 300 mg, 350 mg, 400 mg, and 450 mg total daily dose in continuous dosing regimen. The dose used in Phase 1b was 300 mg QD.
In some cohorts, a phase 1a dose escalation was carried out starting at doses of 350 mg, 400 mg, 450 mg and 500 mg total daily dose at a 5:2 or 4:3 dosing regimen. The doses used in Phase 1b were 350 mg and 400 mg at 5:2 dosing regimen.
In this example, a Phase 1 Azenosertib dose optimization study was carried out to evaluate the recommended phase II dose (RP2D) of Azenosertib monotherapy.
A total of 127 heavily pretreated subjects with advanced solid tumors were treated with Azenosertib monotherapy at ascending dose levels of either continuous daily dosing or intermittent weekly administration schedules. Across all tumor types, 74 subjects were treated with continuous dosing schedules and 53 subjects were treated with intermittent dosing schedules.

[5] = 175 mg, 175 twice daily, 5/2, steady state (Day 12/11)
[6] = 175 mg, 175 twice daily, Continuous, mean steady state (Day 12/11)
[7] = 300 mg, 300 once daily, Continuous, mean steady state (Day 12/11)
[8] = 350 mg, 350 once daily, 5/2, mean steady state (Day 12/11)
[9] = 350 mg, 350 once daily, Continuous, mean steady state (Day 12/11)

C=CCn1c(=O)c2cnc(Nc3ccc(N4CCN(C)CC4)cc3)nc2n1-c1ccc2c(n1)[C@@](O)(CC)CC2 [Azenosertib, (R)-2-allyl-1-(7-ethyl-7-hydroxy-6,7-dihydro-5H-cyclopenta[b]pyridin-2-yl)-6-((4-(4-methylpiperazin-1-yl)phenyl)amino)-1,2-dihydro-3H-pyrazolo[3,4-d]pyrimidin-3-one]
tumor volume, intermittent vs continuous dosing ([1]; 100 mg/kg 4 cycles 4 days on/3 days off vs continuous 60 mg/kg, 25 days): more efficacious; also recorded: slightly more efficacy than lower continuous dosing
tumor volume, intermittent vs continuous dosing ([1]; 56 or 112 mg/kg 4 cycles 5 days on/2 days off vs continuous 40 or 80 mg/kg, same total cumulative dose, 28 days): more efficacious; also recorded: more efficacy in reducing tumor volume than lower continuous dosing
tolerability (body weight) ([1]; all doses (40, 80 mg/kg continuous; 56, 112 mg/kg 5/2)): well tolerated
exposure, intermittent vs continuous dose ([2]; 350 mg once daily (or 175 mg twice daily), 5/2 vs continuous): higher for intermittent vs. continuous; also recorded: comparable or better exposure
Cmax [2, 5]: 1470 ng/mL
Tmax [2, 5]: 1 h
AUC [2, 5]: 13300 ng·h/mL
Cmax [2, 6]: 738 ng/mL
Tmax [2, 6]: 2.3 h
AUC [2, 6]: 10800 ng·h/mL
Cmax [2, 7]: 1090 ng/mL
Tmax [2, 7]: 2.8 h
AUC [2, 7]: 10800 ng·h/mL
Cmax [2, 8]: 1490 ng/mL
Tmax [2, 8]: 3 h
AUC ([2]; 350 mg, 350 once daily, 5/2, steady state (Day 12/11)): 10300 to 15800 ng·h/mL
Cmax [2, 9]: 840 ng/mL
Tmax [2, 9]: 2.2 h
AUC [2, 9]: 7140 ng·h/mL
tumor growth inhibition (TGI) [3]: 52.6%
steady state exposure AUC (0-24), intermittent RP2D vs continuous ([4]; 400 mg QD 5/2 compared to 300 mg QD continuous administration): more than doubled
cases of febrile neutropenia and sepsis ([4]; Azenosertib monotherapy including intermittent dosing): no observed cases of febrile neutropenia and sepsis
RP2D as a monotherapy ([4]; daily (QD), 5 days on, 2 days off (5/2) weekly schedule): 400 mg
discontinuations due to TRAEs ([4]; intermittent cohorts): no reported discontinuation; also recorded: No discontinuations due to TRAEs
gastrointestinal, fatigue, and hematologic Grade 3 and 4 treatment-related adverse events (TRAEs) ([4]; intermittent versus continuous dosing): comparable or favorable versus continuous dosing
safety and tolerability, intermittent vs continuous dosing ([4]; monotherapy): improved tolerability
maximal concentration (Cmax) levels, intermittent vs continuous dosing regimen ([4]; monotherapy, Phase 1): higher maximal concentration (Cmax) levels
